Laboratory results as given in patent publication US20120184517A1, “TREATMENT OF DISEASES WITH ALTERED SMOOTH MUSCLE CONTRACTILITY” (priority 2009, published 2012).

What was measured:
[1] = system: rat stroke models; conditions: in vivo; cited from earlier work
[2] = target: maxi-K potassium channels (Homo sapiens, UniProt Q12791); conditions: 50 nM intracellular Ca2+; cited from earlier work
[3] = system: WT tracheal rings; test: Isoproterenol-induced relaxation of WT tracheal rings on a myograph; assay type: cell-based, murine; conditions: pre-incubation with β2-AR antagonist 100 nM
Method: (n=4 each). Asterisk (*) indicates P<0.05 versus vehicle (DMSO). […] Cumulative dose-response curves of WT tracheal rings to isoproterenol in the absence and presence of 100 nM iberiotoxin (IbTX), a specific BK channel inhibitor. Values in graphs are means±standard deviation.
In this experiment, murine tracheal smooth muscle cells were acutely isolated and whole cell patch clamped as previously described (Zakharov, S. et al., (2005) J Biol Chem 280, 30882-30887).
To dissect which (or both) β-AR pathways are responsible for the effects, tracheal rings were pre-incubated with either β1-AR antagonist (CGP 20712A; 100 nM) or a β2-AR antagonist (ICI 118551; 100 nM) or vehicle (DMSO). […] To confirm that the isoproterenol-induced relaxation was dependent upon BK channel-induced hyperpolarization, IbTX, a specific inhibitor of the BK channel, was used.

[4] = target: T1, BKCa channel (Homo sapiens, UniProt Q12791); conditions: cytoplasmic side; cited from earlier work
T1 sequence (Q12791 whole entry): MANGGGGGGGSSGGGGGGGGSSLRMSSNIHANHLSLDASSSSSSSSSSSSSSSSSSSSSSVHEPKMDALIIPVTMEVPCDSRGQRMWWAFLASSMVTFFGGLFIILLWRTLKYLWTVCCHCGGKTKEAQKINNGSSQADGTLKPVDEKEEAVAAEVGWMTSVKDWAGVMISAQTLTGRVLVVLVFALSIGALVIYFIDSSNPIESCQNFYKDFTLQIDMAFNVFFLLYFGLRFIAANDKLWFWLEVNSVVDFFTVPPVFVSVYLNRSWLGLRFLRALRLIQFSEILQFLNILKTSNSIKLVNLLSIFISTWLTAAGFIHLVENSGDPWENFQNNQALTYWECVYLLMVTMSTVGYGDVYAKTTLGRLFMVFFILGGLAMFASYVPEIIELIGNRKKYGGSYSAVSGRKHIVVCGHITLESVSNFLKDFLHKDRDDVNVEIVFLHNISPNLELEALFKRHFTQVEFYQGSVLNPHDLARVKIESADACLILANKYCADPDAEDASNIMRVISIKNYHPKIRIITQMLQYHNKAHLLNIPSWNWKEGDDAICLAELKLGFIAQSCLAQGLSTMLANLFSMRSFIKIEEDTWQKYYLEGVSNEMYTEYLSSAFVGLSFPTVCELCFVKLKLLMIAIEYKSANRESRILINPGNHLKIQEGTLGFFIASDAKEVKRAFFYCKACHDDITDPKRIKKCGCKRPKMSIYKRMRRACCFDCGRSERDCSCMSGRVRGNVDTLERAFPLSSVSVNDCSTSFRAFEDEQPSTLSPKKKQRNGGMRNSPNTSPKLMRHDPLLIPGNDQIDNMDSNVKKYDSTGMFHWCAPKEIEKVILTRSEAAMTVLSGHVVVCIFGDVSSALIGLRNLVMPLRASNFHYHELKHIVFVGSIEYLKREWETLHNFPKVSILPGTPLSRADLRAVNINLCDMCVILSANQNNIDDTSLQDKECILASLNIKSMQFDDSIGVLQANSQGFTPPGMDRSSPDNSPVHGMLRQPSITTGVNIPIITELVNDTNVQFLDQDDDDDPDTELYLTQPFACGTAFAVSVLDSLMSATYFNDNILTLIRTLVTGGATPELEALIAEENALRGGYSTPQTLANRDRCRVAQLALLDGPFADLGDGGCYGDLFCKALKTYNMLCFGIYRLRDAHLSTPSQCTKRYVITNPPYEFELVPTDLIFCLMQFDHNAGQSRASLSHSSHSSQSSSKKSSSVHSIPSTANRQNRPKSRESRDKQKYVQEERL

[5] = not told; cited from earlier work
[6] = target: T2, BKCa channel in porcine coronary artery cells (Sus scrofa, UniProt O18866); conditions: cited from earlier work
T2 construct: host or cells: porcine coronary artery cells
T2 sequence (O18866 whole entry): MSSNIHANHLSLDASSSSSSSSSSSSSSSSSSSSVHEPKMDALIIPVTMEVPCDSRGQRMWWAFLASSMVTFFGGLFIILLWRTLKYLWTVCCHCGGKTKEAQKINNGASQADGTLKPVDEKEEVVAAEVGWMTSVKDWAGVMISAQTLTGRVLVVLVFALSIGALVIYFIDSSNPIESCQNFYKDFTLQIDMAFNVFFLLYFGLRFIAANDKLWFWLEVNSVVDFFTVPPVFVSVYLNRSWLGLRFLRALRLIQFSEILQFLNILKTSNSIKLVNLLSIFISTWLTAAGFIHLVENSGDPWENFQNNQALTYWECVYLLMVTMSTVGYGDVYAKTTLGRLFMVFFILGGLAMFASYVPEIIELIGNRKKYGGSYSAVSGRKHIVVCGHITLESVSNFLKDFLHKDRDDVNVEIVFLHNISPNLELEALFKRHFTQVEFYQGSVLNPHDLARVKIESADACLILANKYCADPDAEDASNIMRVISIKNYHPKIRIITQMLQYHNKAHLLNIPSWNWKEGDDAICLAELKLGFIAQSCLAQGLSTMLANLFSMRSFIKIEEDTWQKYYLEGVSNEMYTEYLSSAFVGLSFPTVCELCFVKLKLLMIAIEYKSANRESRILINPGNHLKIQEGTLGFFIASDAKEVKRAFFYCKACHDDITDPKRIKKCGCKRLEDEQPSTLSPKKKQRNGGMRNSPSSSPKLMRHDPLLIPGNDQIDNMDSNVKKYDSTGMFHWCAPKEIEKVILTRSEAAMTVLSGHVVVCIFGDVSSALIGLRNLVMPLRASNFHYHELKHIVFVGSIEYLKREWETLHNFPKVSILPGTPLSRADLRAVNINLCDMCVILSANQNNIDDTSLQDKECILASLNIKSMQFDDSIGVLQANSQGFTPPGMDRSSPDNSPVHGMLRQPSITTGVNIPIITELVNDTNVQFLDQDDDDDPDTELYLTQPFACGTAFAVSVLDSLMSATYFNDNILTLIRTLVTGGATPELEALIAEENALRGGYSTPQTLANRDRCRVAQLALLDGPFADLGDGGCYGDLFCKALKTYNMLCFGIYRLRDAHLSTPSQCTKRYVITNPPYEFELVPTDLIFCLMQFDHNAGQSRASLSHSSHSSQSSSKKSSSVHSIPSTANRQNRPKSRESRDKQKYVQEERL

[7] = target: T3, BKCa channel (mSlo) (Mus musculus, UniProt Q08460); test: Whole cell patch clamp of HEK293 cells stably transfected with mSlo; assay type: cell-based, murine
T3 construct: expressed in transfected cells
T3 sequence (Q08460 whole entry): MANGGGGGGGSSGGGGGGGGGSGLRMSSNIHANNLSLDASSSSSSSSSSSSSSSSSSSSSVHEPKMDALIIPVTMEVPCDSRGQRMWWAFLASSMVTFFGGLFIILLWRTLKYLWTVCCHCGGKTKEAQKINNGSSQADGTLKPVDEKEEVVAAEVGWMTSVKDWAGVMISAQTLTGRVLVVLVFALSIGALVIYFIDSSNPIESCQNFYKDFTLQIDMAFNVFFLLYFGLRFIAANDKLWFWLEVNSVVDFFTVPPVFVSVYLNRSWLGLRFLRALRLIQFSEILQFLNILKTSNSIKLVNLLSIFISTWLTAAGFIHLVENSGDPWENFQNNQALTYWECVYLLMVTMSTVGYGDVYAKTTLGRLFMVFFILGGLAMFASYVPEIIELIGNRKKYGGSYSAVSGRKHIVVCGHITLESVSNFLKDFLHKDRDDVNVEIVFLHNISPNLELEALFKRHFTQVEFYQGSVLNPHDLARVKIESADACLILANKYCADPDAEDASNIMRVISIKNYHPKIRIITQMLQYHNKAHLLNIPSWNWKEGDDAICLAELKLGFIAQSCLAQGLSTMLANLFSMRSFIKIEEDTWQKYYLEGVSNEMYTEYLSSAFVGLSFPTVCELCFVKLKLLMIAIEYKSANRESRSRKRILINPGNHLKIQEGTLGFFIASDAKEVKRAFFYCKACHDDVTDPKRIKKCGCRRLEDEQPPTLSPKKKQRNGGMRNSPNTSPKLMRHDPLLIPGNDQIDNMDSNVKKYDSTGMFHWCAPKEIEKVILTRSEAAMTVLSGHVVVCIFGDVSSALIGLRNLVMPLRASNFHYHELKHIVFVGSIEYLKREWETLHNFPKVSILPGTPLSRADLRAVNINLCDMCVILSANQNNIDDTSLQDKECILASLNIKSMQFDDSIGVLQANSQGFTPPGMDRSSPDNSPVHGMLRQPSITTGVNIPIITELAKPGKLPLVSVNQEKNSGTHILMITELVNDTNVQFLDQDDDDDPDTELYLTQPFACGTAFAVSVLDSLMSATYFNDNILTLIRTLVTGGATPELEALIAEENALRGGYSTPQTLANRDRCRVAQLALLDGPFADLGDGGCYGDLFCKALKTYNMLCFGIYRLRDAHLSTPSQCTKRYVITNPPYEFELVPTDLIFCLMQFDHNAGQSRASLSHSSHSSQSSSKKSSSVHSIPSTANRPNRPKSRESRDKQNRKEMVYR
Method: FIGS. 4A and 4B show representative current traces from whole cell patches with 5 mM EGTA in patch pipette. […] Voltage steps are shown at the right of each tracing; note the different maximum voltage steps +200 mV (upper) vs. +120 mV (lower). […] FIG. 4C G-V curves were constructed for indicated conditions utilizing tail analysis (Xia, et al., Multiple regulatory sites in large-conductance calcium-activated potassium channels. Nature, 2002. 418(6900):880-4). Solid lines were fitted with Boltzmann function. […] FIGS. 4D and 4E show experiments studying stable mslo HEK293 cells in whole cell configuration with a pipette solution containing 5 mM EGTA (˜0 free Ca^2+).
Current in the diary plot in FIG. 5B represents maximal current in ramp protocol at +70 mV. Holding potential of ramp was −20 mV, with ramp from −30 mV to +180 mV over 500 ms. The G-V curve in FIG. 5C was generated from the tail analysis as described in FIG. 4.
(§1) Current was monitored with a ramp protocol; holding potential −60 mV, with ramp from −80 mV to +150 mV over 500 ms. […] Analysis was performed using tail analysis with normalization as previously described (Xia, et al., Multiple regulatory sites in large-conductance calcium-activated potassium channels. Nature, 2002. 418(6900):880-4). […] Identification of the BKCa channel was determined by conductance and inhibition by iberiotoxin and TEA. […] Murine femoral arterial rings were isolated and placed in a wire myograph. […] The figures shown are representative of 4 similar experiments. Error bars are standard error of the mean (SEM). Asterisk (*) indicates p<0.001.

[8] = system: 2K-1C hypertensive rats; conditions: hypertensive rat model compared to controls; cited from earlier work
[9] = system: porcine coronary myocytes; conditions: 30 μM; cited from earlier work
[10] = system: murine femoral arterial rings; assay type: cell-based
Method: as §1

[11] = system: tracheal rings; test: Isoproterenol-induced relaxation of tracheal rings from PBS- and OVA-sensitized animals; assay type: cell-based, murine; conditions: no rottlerin
Method: The isoproterenol-induced relaxation of tracheal rings from OVA-sensitized asthmatic animals was also tested. After induction of asthma, tracheal rings were removed and mounted on the myograph. […] At the conclusion of the experiment, each tracheal ring was exposed to methacholine to ensure viability of the ring and equivalent constriction.
After induction of asthma, tracheal rings were removed and mounted on the myograph. […] The ISO-relaxation curve was shifted downward and to the right, with the maximal relaxation response reduced to only ˜25% from more than 60%.

[12] = target: T4, BK currents in tracheal ASM cells (Mus musculus, UniProt Q08460); test: Perforated whole cell voltage clamp of acutely isolated tracheal ASM, outward K+ current; assay type: cell-based; conditions: 0.5 μM ISO
T4 construct: The effect of ISO on BK currents in acutely isolated tracheal ASM was also determined; endogenous in cells; host or cells: acutely isolated tracheal airway smooth muscle cells
T4 sequence (Q08460 whole entry): as above
T4 sequence (Q8CAE3 whole entry partner): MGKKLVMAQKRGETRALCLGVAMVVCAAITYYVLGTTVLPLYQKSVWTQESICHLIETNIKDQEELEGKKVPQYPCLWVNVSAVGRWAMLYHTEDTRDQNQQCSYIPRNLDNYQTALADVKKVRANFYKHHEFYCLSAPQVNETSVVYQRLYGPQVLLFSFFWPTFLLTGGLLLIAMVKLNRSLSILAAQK
Method: FIG. 23A is a diary plot of current recorded during repetitive stimulation by depolarizing ramps every 5 seconds to +200 mV from a holding potential of −20 mV. ISO and ISO+IbTX exposure are indicated by bars at bottom of plot. Dashed line indicates average control current.
The effect of ISO on BK currents in acutely isolated tracheal ASM was also determined. ASM cells were studied using perforated whole cell voltage clamp. After obtaining access, outward K^+ current was monitored using a 0.5 second ramp, from a holding potential of −20 mV to +200 mV. […] Under the conditions used, the majority of the outward K^+ current is conducted by the BK channel, as shown by IbTX-blockade (FIGS. 23A and 23B).

[13] = target: T1, BKCa channel; conditions: cited from earlier work
[14] = system: dilation to forskolin; conditions: cited from earlier work

maxi-K potassium channels, sequence (Q12791 whole entry): as the sequence (Q12791 whole entry) above

In the case of `COc1ccc(Cl)cc1[C@]1(F)C(=O)Nc2cc(C(F)(F)F)ccc21` [BMS-204352], the brain infarct size [1] is given as “reduction in brain infarct size” and the effect on current [2] is given as “almost no effect”.

In the case of `Cc1ccc(OCC(O)C(C)NC(C)C)c2c1CCC2` (centres unmarked) [ICI 118551, reference compound], the isoproterenol dose-response curve [3] is reported as “rightward shift in the dose-response curve”.

For `C=C[C@]1(C)C=C2CC[C@@]3(O)C(C)(C)CC[C@H](O)[C@]3(C)C2CC1` (some centres unmarked) [Maxikdiol], the “concentration of significant effect” value [4] is given as 3 to 10 µM, the “threshold of channel activation” value [4] is given as 1 µM and the membrane permeability [5] is given as “limited”.

For `O=C(Nc1cccc(C(F)(F)F)c1)Nc1cc(Cl)ccc1O` [NS1608], the “effect at higher concentrations” value ([6]; 50 μM) is given as “inhibitory effect”, the “concentration of maximum activation” value [6] is given as 5 to 10 µM and the minimum effective concentration [6] is given as 0.5 µM.

In the case of `O=c1[nH]c2cc(C(F)(F)F)ccc2n1-c1cc(C(F)(F)F)ccc1O` [NS-1619], the “peak K+ current” value ([7]; NS-1619 10 μM extracellular) is listed as “activated peak K^+ current”, the “efficacy in mediating vascular relaxation” value [8] is listed as “diminished” and the “intracellular Ca2+ concentration” value [9] is listed as “increase intracellular Ca^2+ concentration”.

In the case of `CC[N+](CC)(CC)CC` [TEA, tetraethylammonium, reference compound], the “effect on rottlerin induced BKCa activation” value [7] is reported as “reversibly inhibited” and the “effect on the rottlerin mediated effect” value [10] is reported as “inhibited”.

In the case of `CC(C)NCC(O)c1ccc(O)c(O)c1` (centres unmarked) [isoproterenol, reference compound], the “maximal relaxation response to isoproterenol” value ([11]; OVA-sensitized rings) is reported as roughly 25%, the “maximal relaxation response to isoproterenol” value ([11]; control rings) is reported as “more than 60%” and the “increase of outward K+ current” value [12] is reported as “more than 50%”.

For `CC1(C)C[C@@H](O)[C@]2(C)CC[C@]3(C)C(=CC[C@@H]4[C@@]5(C)CC[C@H](O[C@@H]6O[C@H](C(=O)O)[C@@H](O)[C@H](O)[C@H]6O[C@@H]6O[C@H](CO)[C@H](O)[C@H](O)[C@H]6O)[C@](C)(CO)[C@@H]5CC[C@]43C)[C@@H]2C1` [soyasaponin III], the BKCa channel activation [13] is given as “activate BKCa channels”.

In the case of `C[C@@H]1O[C@@H](O[C@H]2[C@H](O[C@H]3[C@H](O[C@H]4CC[C@@]5(C)[C@@H](CC[C@]6(C)[C@@H]5CC=C5[C@@H]7CC(C)(C)C[C@@H](O)[C@]7(C)CC[C@]56C)[C@@]4(C)CO)O[C@H](C(=O)O)[C@@H](O)[C@@H]3O)O[C@H](CO)[C@H](O)[C@@H]2O)[C@H](O)[C@H](O)[C@H]1O` [soyasaponin I], the BKCa channel activation [13] is listed as “activate BKCa channels”.

For Ryanodine, the “reduction of dilation to forskolin” value [14] is listed as 80%.

For dehydrosoyasaponin-I [DHS-I], the BKCa channel activation [13] is given as “activate BKCa channels”, the “channel activity with α and β subunits co-expressed” value [13] is given as “increases channel activity” and the membrane permeability [5] is given as “poor”.
